Patent US20040198815A1, “Antimicrobial and anticancer properties of methyl-beta-orcinolcarboxylate from lichen (Everniastrum cirrhatum)” (priority 2003, published 2004)
Converted amounts (≈) assume the structure as drawn.

How the values were obtained:
[1] = test system: Candida albicans mutant strain Amph 100R; experiment: disc diffusion assay, mutant Amph 100R; type: cell-based; settings: for zone of inhibition at 80 µg/disc: Candida albicans, read-out: Net zone of growth inhibition
Description: (§1) C. albicans was grown to log phase in Sabouraud's dextrose broth (5 ml) for 48 hrs at 37° C. in a shaker at 250 rpm. The cells were pelleted by centrifugation at 5000 rpm at 4° C. and the pellet was dissolved in 5 ml phosphate buffered saline PBS (6.8 pH). The culture was divided in to five groups of 1 ml each in eppendrof tubes.
(§2) Ethyl methane sulfonate (EMS) was added to each of the culture tube @ 0.1% (v/v) and allowed to grow for 40 min. Then the mutagen was completely washed off thrice by repeatedly pelleting the cells and re-dissolving in PBS. The mutagenized stocks was then diluted in Sabouraud's dextrose broth two folds and allowed to grow for 6 hrs at 37° C. in a shaker at 250 rpm. Titre of the cells before treatment with EMS and immediately after treatment with EMS was calculated to obtain the killing percentage in each of the five tubes. The mutagenized and fixed cultures were then plated in Sabouraud's dextrose agar containing different concentration of amphotericin, nystatin and clotrimazole.
(§3) The colonies found growing after 5th day from each of the five mutagenized stocks were then purified thrice separately by streaking in the same medium containing the antibiotics.

[2] = test system: Saccharomyces cerevisiae erg 2 (amphotericin and nystatin resistant); experiment: disc diffusion assay, S. cerevisiae erg 2; settings: 80 μg/disc
Description: (§4) The drug resistance property of the mutants was studied by standardized disc diffusion assay (Bauer at al 1966, American Journal of Clinical Pathology 45: 493-496) with slight modifications. The discs were prepared (5 mm diameter made of Whatman #3 filter paper) by impregnating 8 μl of test compound and placing them on pre-inoculated agar surface.
(§5) A disc containing only the solvent was used as the control. A zone of growth inhibition surrounding the disc is indicative of the […] nature of the strains to antibiotics.
(§6) The pure compound isolated was then tested against polyene and azole resistant strains of Candida albicans. […] In another experiment well-defined amphotericin and nystatin resistant strains of Saccharomyces cerevisiae were used in the assay. These strains designated as erg 2 and erg 6 carry mutations in the ergosterol biosynthetic pathway and therefore are unable to synthesize ergosterol which are the binding site of polyene drugs. Therefore absence of erostreol results in polyene resistance.

[3] = test system: Saccharomyces cerevisiae erg 6 (amphotericin and nystatin resistant); settings: 80 μg/disc
Description: as §4, §5, §6

[4] = test system: Candida albicans MTCC 1637 (Wild Type); experiment: disc diffusion assay, wild type Candida albicans; type: cell-based; settings: for zone of inhibition at 80 µg/disc: MTCC1637, read-out: Net zone of growth inhibition
Description: as §4, §5

[5] = test system: Candida albicans mutant strain NYS 4R; experiment: microbe, parasite or virus in culture; type: cell-based
Description: as §1, §2, §3

[6] = test system: Candida albicans mutant strain Clo 28R; experiment: microbe, parasite or virus in culture; type: cell-based
Description: as §1, §2, §3

[7] = test system: Candida albicans mutant strain NYS 26R; experiment: microbe, parasite or virus in culture; type: cell-based
Description: as §1, §2, §3

[8] = test system: Candida albicans mutant strain Clo 31R; experiment: microbe, parasite or virus in culture; type: cell-based
Description: as §1, §2, §3

[9] = test system: Saccharomyces Cerevisiae ABC 287 (WT); experiment: disc diffusion assay, wild type Saccharomyces cerevisiae; type: cell-based; settings: 80 μg/disc; for zone of inhibition at 80 µg/disc: read-out: Net zone of growth inhibition
Description: as §4, §5, §6

[10] = test system: Candida albicans mutant strain Amph A8R; experiment: microbe, parasite or virus in culture; type: cell-based
Description: as §1, §2, §3

[11] = test system: Candida albicans mutant strain Amph D1R; experiment: microbe, parasite or virus in culture; type: cell-based
Description: as §1, §2, §3

[12] = test system: Candida albicans mutant strain Amph C7R; experiment: microbe, parasite or virus in culture; type: cell-based
Description: as §1, §2, §3

[13] = test system: Candida albicans mutant strain Amph C6R; experiment: microbe, parasite or virus in culture; type: cell-based
Description: as §1, §2, §3

[14] = test system: (MCF-7) cancer cell line; experiment: MTT cytotoxicity testing in vitro, MCF-7; type: cell-based; settings: Homo sapiens, MCF7, 6 h exposure then 48 h
Description: (§7) Cytotoxicity testing in vitro was done by the method of Woerdenbag et al.,1993; J.Nat.Prod. 56 (6): 849-856). 2×10^3 cells/well were incubated in the 5% CO2 incubator for 24 h to enable them to adhere properly to the 96 well polysterene microplate (Grenier, Germany). Test compounds dissolved in 100% DMSO (Merck, Germany) in at least five doses were added and left for 6 h after which the compound plus media was replaced with fresh media and the cells were incubated for another 48 h in the CO2 incubator at 37° C. […] Sigma M 2128] was added, and plates were incubated at 37° C. for 4 h. 100 μl dimethyl sulfoxide (DMSO, Merck, Germany) were added to all wells and mixed thoroughly to dissolve the dark blue crystals. After a few minutes at mom temperature to ensure that all is crystals were dissolved, the plates were read on a SpectraMax 190 Mcroplate Elisa reader (Molecular Devices Inc., USA), at 570 nm. Plates were normally read within 1 h of adding the DMSO.

[15] = test system: ovarian (MCF-7) cancer cell line; experiment: MTT cytotoxicity testing in vitro, MCF-7; type: cell-based; settings: Homo sapiens, MCF7, 6 h exposure then 48 h
Description: as §7

[16] = test system: polyene and azole resistant strains of Candida albicans; type: cell-based
Description: Ethanol extract was prepared and tested against Candida albicans MTCC 1637 (equivalent to ATCC 18804) the fungi that cause different forms of candidiasis in humans and drug resistant mutants of the fungi.

[17] = test system: liver (WRL-68) cancer cell line; experiment: MTT cytotoxicity testing in vitro, WRL-68; type: cell-based; settings: Homo sapiens, WRL68, 6 h exposure then 48 h
Description: as §7

[18] = test system: ovarian (PA-1) cancer cell line; experiment: MTT cytotoxicity testing in vitro, PA-1; type: cell-based; settings: Homo sapiens, 6 h exposure then 48 h
Description: as §7

[19] = test system: colon (Caco-2) cancer cell line; experiment: MTT cytotoxicity testing in vitro, Caco-2; type: cell-based; settings: Homo sapiens, Caco2, 6 h exposure then 48 h
Description: Cytotoxicity testing in vitro was done by the method of Woerdenbag et al.,1993; J.Nat.Prod. […] 2×10^3 cells/well were incubated in the 5% CO2 incubator for 24 h to enable them to adhere properly to the 96 well polysterene microplate (Grenier, Germany). […] Then, 10 μl MTT [3-(4,5-dimethylthiazol-2-yl)-2,5-diphenyltetrazolium bromide; Sigma M 2128] was added, and plates were incubated at 37° C. for 4 h. 100 μl dimethyl sulfoxide (DMSO, Merck, Germany) were added to all wells and mixed thoroughly to dissolve the dark blue crystals. […] Plates were normally read within 1 h of adding the DMSO.

[20] = test system: Saccharomyces cerevisiae; settings: Caccamese et al (1985); cited from earlier work
[21] = test system: polyene drug resistant Saccharomyces cerevisiae; experiment: activity against polyene resistant S. cerevisiae (as a group); type: cell-based; settings: erg 2 and erg 6 strains
Excerpt: Therefore absence of erostreol results in polyene resistance.

[22] = test system: oral (KB 403) cancer cell line; experiment: MTT cytotoxicity testing in vitro, KB 403; type: cell-based; settings: Homo sapiens, KB403, 6 h exposure then 48 h
Description: as §7

[23] = in-vitro ergosterol binding assay
Description: Therefore, the ability of lichen compounds to bind to ergosterol was also investigated using in-vitro ergosterol binding assay (Antonio & Molinski 1993; J.Natl.Prod.56:54-61).

[24] = Candida albicans MTCC (Wild Type), 80 μg/disc
[25] = Candida albicans, read-out: Net zone of growth inhibition

SMILES: C[C@@H]1[C@H](O)[C@@H](C)/C=C/C=C/C=C/C=C/C=C/C=C/C=C/[C@H](O[C@@H]2O[C@H](C)[C@@H](O)[C@H](N)[C@@H]2O)C[C@@H]2O[C@](O)(C[C@@H](O)C[C@@H](O)[C@H](O)CC[C@@H](O)C[C@@H](O)CC(=O)O[C@H]1C)C[C@H](O)[C@H]2C(=O)O [Amphotericin]
- zone of inhibition at 80 µg/disc [1]: 2 mm
- Net zone of growth inhibition [2]: 6 mm
- Net zone of growth inhibition [3]: 5 mm
- zone of inhibition at 80 µg/disc [4, 24]: 9 mm
- zone of inhibition at 80 µg/disc [5, 25]: 2 mm
- zone of inhibition at 80 µg/disc [6, 25]: 12 mm
- zone of inhibition at 80 µg/disc [7, 25]: 4 mm
- zone of inhibition at 80 µg/disc [8, 25]: 6 mm
- zone of inhibition at 80 µg/disc [9]: 8 mm

SMILES: Clc1ccccc1C(c1ccccc1)(c1ccccc1)n1ccnc1 [Clotrimazole, reference compound]
- zone of inhibition at 80 µg/disc [1]: 25 mm
- zone of inhibition at 80 µg/disc [4, 24]: 17 mm
- zone of inhibition at 80 µg/disc [5, 25]: 20 mm
- zone of inhibition at 80 µg/disc [10, 25]: 22 mm
- zone of inhibition at 80 µg/disc [6, 25]: 14 mm
- zone of inhibition at 80 µg/disc [11, 25]: 27 mm
- zone of inhibition at 80 µg/disc [12, 25]: 12 mm
- zone of inhibition at 80 µg/disc [7, 25]: 19 mm
- zone of inhibition at 80 µg/disc [8, 25]: 11 mm
- zone of inhibition at 80 µg/disc [13, 25]: 10 mm

SMILES: COC(=O)c1c(C)cc(O)c(C)c1O [Methyl-β-orcinolcarboxylate, methyl-β-orcinolcarboxylate]
- IC50 [14]: 1 µg/mL (≈ 5.1 µM)
- IC90 [15]: 5.5 µg/mL (≈ 28 µM)
- activity against drug resistant strains of C. albicans (in words) [16]: able to inhibit the growth of drug resistant strains in a dose dependant manner
- IC50 [17]: 1 µg/mL (≈ 5.1 µM)
- IC90 [17]: 5 µg/mL (≈ 25.5 µM)
- IC50 [18]: 0.025 µg/mL (≈ 0.127 µM)
- IC90 [18]: 4 µg/mL (≈ 20.4 µM)
- Net zone of growth inhibition [2]: 6 mm
- IC50 [19]: 1.5 µg/mL (≈ 7.65 µM)
- IC90 [19]: 3.5 µg/mL (≈ 17.8 µM)
- growth inhibition of yeast strains such as Saccharomyces cerevisiae (in words) [20]: inhibit the growth
- growth inhibition of polyene drug resistant Saccharomyces cerevisiae (in words) [21]: able to specifically inhibit the growth
- IC50 [22]: 0.04 µg/mL (≈ 0.204 µM)
- IC90 [22]: 4.5 µg/mL (≈ 22.9 µM)
- ergosterol-binding property [23]: does not possess ergosterol-binding property
- Net zone of growth inhibition [3]: 6 mm
- growth inhibition of the wild type strain (in words) ([4]; wild type Candida albicans): inactive
- zone of inhibition at 40 µg/disc [5, 25]: 2 mm
- zone of inhibition at 80 µg/disc [5, 25]: 7 mm
- zone of inhibition at 320 µg/disc [5, 25]: 8 mm
- zone of inhibition at 40 µg/disc [10, 25]: 1 mm
- zone of inhibition at 80 µg/disc [10, 25]: 2 mm
- zone of inhibition at 320 µg/disc [10, 25]: 4 mm
- zone of inhibition at 80 µg/disc [6, 25]: 4 mm
- zone of inhibition at 320 µg/disc [6, 25]: 6 mm
- zone of inhibition at 80 µg/disc [11, 25]: 4 mm
- zone of inhibition at 320 µg/disc [11, 25]: 6 mm
- zone of inhibition at 40 µg/disc [12, 25]: 2 mm
- zone of inhibition at 80 µg/disc [12, 25]: 5 mm
- zone of inhibition at 320 µg/disc [12, 25]: 7 mm
- zone of inhibition at 40 µg/disc [7, 25]: 2 mm
- zone of inhibition at 80 µg/disc [7, 25]: 6 mm
- zone of inhibition at 320 µg/disc [7, 25]: 8 mm
- zone of inhibition at 80 µg/disc [8, 25]: 3 mm
- zone of inhibition at 320 µg/disc [8, 25]: 4 mm
- zone of inhibition at 40 µg/disc [13, 25]: 2 mm
- zone of inhibition at 80 µg/disc [13, 25]: 4 mm
- zone of inhibition at 320 µg/disc [13, 25]: 5 mm
- zone of inhibition at 80 µg/disc [9]: 2 mm

SMILES: C[C@@H]1[C@H](O)[C@@H](C)/C=C/C=C/CC/C=C/C=C/C=C/C=C/C(O[C@H]2O[C@H](C)[C@@H](O)[C@H](N)[C@@H]2O)CC2O[C@](O)(CC(O)C(O)CCC(O)CC(O)CC(O)CC(=O)O[C@H]1C)CC(O)C2C(=O)O (some centres unmarked) [Nystatin]
- Net zone of growth inhibition ([1]; Amph 100R, 80 μg/disc): 13 mm
- Net zone of growth inhibition [2]: 16 mm
- Net zone of growth inhibition [3]: 13 mm
- Net zone of growth inhibition [4, 24]: 22 mm
- Net zone of growth inhibition ([5]; NYS 4R, 80 μg/disc): 8 mm
- Net zone of growth inhibition ([10]; Amph A8R, 80 μg/disc): 3 mm
- Net zone of growth inhibition ([6]; Clo 28R, 80 μg/disc): 21 mm
- Net zone of growth inhibition ([11]; Amph D1R, 80 μg/disc): 4 mm
- Net zone of growth inhibition ([12]; Amph C7R, 80 μg/disc): 2 mm
- Net zone of growth inhibition ([7]; NYS 26R, 80 μg/disc): 9 mm
- Net zone of growth inhibition ([8]; Clo 31R, 80 μg/disc): 17 mm
- Net zone of growth inhibition ([13]; Amph C6R, 80 μg/disc): 4 mm
- Net zone of growth inhibition [9]: 23 mm
